Data as given in PubChem BioAssay AID248 (DTP/NCI, 2004).
Values joined by “and” are separate entries in the source; they are usually repeats but may differ in a detail not shown here. Identical values can stand only once. Toxic doses and inconclusive results are not listed.

Test system: L1210 leukemia ip in BDF1 mice, survival T/C
Assay: NCI In Vivo Anticancer Drug Screen. Data for tumor model L1210 Leukemia (intraperitoneal) in B6D2F1 (BDF1) mice
Conditions: endpoint: mean survival time, higher = longer survival
Outline: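 Mice bearing the transplanted tumor received compound or vehicle. Survival of the treated group was divided by that of the vehicle-treated control group to give the ratio.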

[1] = dose: 100.0 mg/kg/injection, schedule: Q01DX001 (ip), vehicle: carboxymethylcellulose (CMC)
[2] = dose: 200.0 mg/kg/injection, schedule: Q01DX001 (ip), vehicle: carboxymethylcellulose (CMC)
[3] = dose: 400.0 mg/kg/injection, schedule: Q01DX001 (ip), vehicle: carboxymethylcellulose (CMC)
[4] = dose: 50.0 mg/kg/injection, schedule: Q01DX009 (ip), vehicle: saline with Tween-80

OCCN1CCN(CCCN2c3ccccc3Sc3ccc(C(F)(F)F)cc32)CC1
T/C (dose: 0.09 mg/kg/injection, schedule: Q01DX009 (ip), vehicle: Klucel (hydroxypropylcellulose) (HPC)): 109 % of control
T/C (dose: 0.12 mg/kg/injection, schedule: Q01DX009 (ip), vehicle: acetone): 107 % of control
T/C (dose: 0.19 mg/kg/injection, schedule: Q01DX009 (ip), vehicle: Klucel (hydroxypropylcellulose) (HPC)): 97 % of control
T/C (dose: 0.25 mg/kg/injection, schedule: Q01DX009 (ip), vehicle: acetone): 106 % of control
T/C (dose: 0.39 mg/kg/injection, schedule: Q01DX009 (ip), vehicle: Klucel (hydroxypropylcellulose) (HPC)): 120 % of control
T/C (dose: 0.39 mg/kg/injection, schedule: Q01DX009 (ip), vehicle: saline): 97 % of control
T/C (dose: 0.39 mg/kg/injection, schedule: Q04DX003 (ip), vehicle: saline): 101 % of control
T/C (dose: 0.5 mg/kg/injection, schedule: Q01DX009 (ip), vehicle: acetone): 112 % of control
T/C (dose: 0.58 mg/kg/injection, schedule: Q01DX009 (ip), vehicle: saline): 111 % of control
T/C (dose: 0.78 mg/kg/injection, schedule: Q01DX009 (ip), vehicle: Klucel (hydroxypropylcellulose) (HPC)): 101 % of control
T/C (dose: 0.78 mg/kg/injection, schedule: Q01DX009 (ip), vehicle: saline): 108 % of control
T/C (dose: 0.78 mg/kg/injection, schedule: Q04DX003 (ip), vehicle: saline): 97 % of control and 108 % of control
T/C (dose: 1.0 mg/kg/injection, schedule: Q01DX009 (ip), vehicle: acetone): 120 % of control
T/C (dose: 1.17 mg/kg/injection, schedule: Q01DX009 (ip), vehicle: saline): 108 % of control
T/C (dose: 1.25 mg/kg/injection, schedule: Q01DX009 (ip), vehicle: saline): 98 % of control
T/C (dose: 1.56 mg/kg/injection, schedule: Q01DX009 (ip), vehicle: Klucel (hydroxypropylcellulose) (HPC)): 92 % of control
T/C (dose: 1.56 mg/kg/injection, schedule: Q01DX009 (ip), vehicle: saline): 87 % of control
T/C (dose: 1.56 mg/kg/injection, schedule: Q04DX003 (ip), vehicle: saline): 97 % of control and 108 % of control
T/C (dose: 2.34 mg/kg/injection, schedule: Q01DX009 (ip), vehicle: saline): 97 % of control
T/C (dose: 3.12 mg/kg/injection, schedule: Q04DX003 (ip), vehicle: saline): 102 % of control and 101 % of control
T/C (dose: 4.68 mg/kg/injection, schedule: Q04DX003 (ip), vehicle: Klucel (hydroxypropylcellulose) (HPC)): 92 % of control
T/C (dose: 5.0 mg/kg/injection, schedule: Q01DX009 (ip), vehicle: saline): 94 % of control and 88 % of control
T/C (dose: 6.25 mg/kg/injection, schedule: Q04DX003 (ip), vehicle: saline): 100 % of control and 114 % of control and 112 % of control
T/C (dose: 6.6 mg/kg/injection, schedule: Q04DX003 (ip), vehicle: saline): 106 % of control
T/C (dose: 9.37 mg/kg/injection, schedule: Q04DX003 (ip), vehicle: Klucel (hydroxypropylcellulose) (HPC)): 107 % of control
T/C (dose: 10.0 mg/kg/injection, schedule: Q04DX003 (ip), vehicle: saline): 117 % of control
T/C (dose: 12.5 mg/kg/injection, schedule: Q04DX003 (ip), vehicle: saline): 107 % of control and 116 % of control
T/C (dose: 15.0 mg/kg/injection, schedule: Q04DX003 (ip), vehicle: saline): 117 % of control
T/C (dose: 50.0 mg/kg/injection, schedule: Q04DX003 (ip), vehicle: saline): 164 % of control

CC1([N+](=O)[O-])COP(=O)(NCc2ccncc2)OC1 (centres undefined)
T/C (dose: 50.0 mg/kg/injection, schedule: Q01DX001 (ip), vehicle: carboxymethylcellulose (CMC)): 107 % of control
T/C [1]: 104 % of control
T/C [2]: 104 % of control
T/C [3]: 109 % of control

Nc1ccc(S(=O)(=O)Nc2ncccn2)cc1
T/C (dose: 100.0 mg/kg/injection, schedule: Q01DX001 (ip), vehicle: saline): 96 % of control
T/C (dose: 100.0 mg/kg/injection, schedule: Q04DX002 (ip), vehicle: Klucel (hydroxypropylcellulose) (HPC)): 103 % of control
T/C (dose: 200.0 mg/kg/injection, schedule: Q01DX001 (ip), vehicle: saline): 97 % of control
T/C (dose: 200.0 mg/kg/injection, schedule: Q04DX002 (ip), vehicle: Klucel (hydroxypropylcellulose) (HPC)): 92 % of control
T/C (dose: 400.0 mg/kg/injection, schedule: Q01DX001 (ip), vehicle: saline): 103 % of control
T/C (dose: 400.0 mg/kg/injection, schedule: Q04DX002 (ip), vehicle: Klucel (hydroxypropylcellulose) (HPC)): 103 % of control

O=NN(CCCl)C(=O)Nc1ccc(CC(=O)O)cc1
T/C (dose: 8.0 mg/kg/injection, schedule: Q01DX001 (ip), vehicle: carboxymethylcellulose (CMC)): 154 % of control
T/C (dose: 12.0 mg/kg/injection, schedule: Q01DX001 (ip), vehicle: carboxymethylcellulose (CMC)): 189 % of control
T/C (dose: 18.0 mg/kg/injection, schedule: Q01DX001 (ip), vehicle: carboxymethylcellulose (CMC)): 226 % of control
T/C (dose: 26.0 mg/kg/injection, schedule: Q01DX001 (ip), vehicle: carboxymethylcellulose (CMC)): 236 % of control

O=S(=O)(OCC1CO1)c1ccc(F)cc1 (centres undefined)
T/C (dose: 100.0 mg/kg/injection, schedule: Q01DX007 (ip), vehicle: Klucel (hydroxypropylcellulose) (HPC)): 103 % of control
T/C (dose: 100.0 mg/kg/injection, schedule: Q04DX003 (ip), vehicle: Klucel (hydroxypropylcellulose) (HPC)): 95 % of control
T/C (dose: 200.0 mg/kg/injection, schedule: Q01DX007 (ip), vehicle: Klucel (hydroxypropylcellulose) (HPC)): 114 % of control
T/C (dose: 200.0 mg/kg/injection, schedule: Q04DX003 (ip), vehicle: Klucel (hydroxypropylcellulose) (HPC)): 104 % of control
T/C (dose: 400.0 mg/kg/injection, schedule: Q01DX007 (ip), vehicle: Klucel (hydroxypropylcellulose) (HPC)): 103 % of control
T/C (dose: 400.0 mg/kg/injection, schedule: Q04DX003 (ip), vehicle: Klucel (hydroxypropylcellulose) (HPC)): 98 % of control

CCN(CC)CC(=O)NCC(C)(CCN1CCOCC1)c1cccc2ccccc12 (centres undefined)
T/C (dose: 100.0 mg/kg/injection, schedule: Q01DX009 (ip), vehicle: saline): 105 % of control
T/C (dose: 200.0 mg/kg/injection, schedule: Q01DX009 (ip), vehicle: saline): 105 % of control
T/C (dose: 400.0 mg/kg/injection, schedule: Q01DX009 (ip), vehicle: saline): 110 % of control

CCCC[Si](C)(C)C
T/C [1]: 103 % of control
T/C [2]: 95 % of control
T/C [3]: 103 % of control

CCOC1OC(C2COC(=O)O2)C(O)C1O (centres undefined)
T/C (dose: 100.0 mg/kg/injection, schedule: Q04DX002 (ip), vehicle: saline): 100 % of control
T/C (dose: 200.0 mg/kg/injection, schedule: Q04DX002 (ip), vehicle: saline): 100 % of control and 104 % of control
T/C (dose: 400.0 mg/kg/injection, schedule: Q04DX002 (ip), vehicle: saline): 100 % of control
T/C (dose: 800.0 mg/kg/injection, schedule: Q04DX002 (ip), vehicle: saline): 100 % of control

CNC(=O)NNC(=O)c1ccc(Cl)cc1
T/C (dose: 25.0 mg/kg/injection, schedule: Q01DX009 (ip), vehicle: saline with Tween-80): 91 % of control
T/C [4]: 94 % of control

CCOC(=O)CC(=O)c1ccccc1SC
T/C (dose: 100.0 mg/kg/injection, schedule: Q04DX003 (ip), vehicle: saline with Tween-80): 102 % of control
T/C (dose: 200.0 mg/kg/injection, schedule: Q04DX003 (ip), vehicle: saline with Tween-80): 100 % of control
T/C (dose: 400.0 mg/kg/injection, schedule: Q04DX003 (ip), vehicle: saline with Tween-80): 91 % of control

CN(C)C1(C)CCC2C3CCC4=CC(=O)CCC4(C)C3CCC21C (centres undefined)
T/C (dose: 50.0 mg/kg/injection, schedule: Q01DX001 (sc), vehicle: steriod suspending solution): 98 % of control
T/C (dose: 100.0 mg/kg/injection, schedule: Q01DX001 (sc), vehicle: steriod suspending solution): 98 % of control
T/C (dose: 200.0 mg/kg/injection, schedule: Q01DX001 (sc), vehicle: steriod suspending solution): 95 % of control
T/C (dose: 400.0 mg/kg/injection, schedule: Q01DX001 (sc), vehicle: steriod suspending solution): 98 % of control

CN(C)c1ccc(/C=C/c2ccc([N+](=O)[O-])cc2[N+](=O)[O-])c(Cl)c1
T/C [4]: 88 % of control
T/C (dose: 100.0 mg/kg/injection, schedule: Q01DX009 (ip), vehicle: saline with Tween-80): 100 % of control
T/C (dose: 200.0 mg/kg/injection, schedule: Q01DX009 (ip), vehicle: saline with Tween-80): 91 % of control

CCOc1ccc(NC(=S)NC2CCCCC2)cc1
T/C (dose: 100.0 mg/kg/injection, schedule: Q01DX009 (ip), vehicle: Klucel (hydroxypropylcellulose) (HPC)): 106 % of control
T/C (dose: 200.0 mg/kg/injection, schedule: Q01DX009 (ip), vehicle: Klucel (hydroxypropylcellulose) (HPC)): 95 % of control
T/C (dose: 400.0 mg/kg/injection, schedule: Q01DX009 (ip), vehicle: Klucel (hydroxypropylcellulose) (HPC)): 96 % of control
